Test results published in patent publication US4576962A, “Prostaglandin analogues” (priority 1984, dated 1986).

Experiments:
[1] = system: rat fundic strip; experiment: smooth muscle contraction, rat fundic strip assay
Method: The smooth muscle contraction potency of compound 1 was tested in the rat fundic strip assay, described by W. L. M. Perry in "Pharmacological Experiments on Isolated Preparations," 2nd ed. (1970), pp. 88-89, Churchill L. Livingstone, publisher.

[2] = system: stomach mucosa; experiment: cytoprotective activity in rats (absolute ethanol induced stomach mucosa lesions); type: in vivo, Sprague-Dawley rats; conditions: for ED50 / Cytoprotection %: rat, oral; for ED50: read-out: ED50 Cytoprotection
Method: A number of the 13,14-didehydro-15-oxo-prostaglandin analogues have been tested for cytoprotective activity in rats. In this test, Sprague-Dawley rats were fasted for 24 hours prior to the pretreatment. […] The control animals were given 2.5 ml of the vehicle, without prostaglandin analogue. A half hour later after the pretreatment, absolute ethanol was administered orally to the animals, in a dose of 10 mL per kg body weight. One hour later the animals were sacrificed, their stomachs dissected out, opened along the greater curvature and the mucosa examined for lesions. The average lesion length is expressed as percentage of the average lesion length found in the stomach mucosa of control animals.
Importantly, this test measures the active cytoprotective properties of the prostaglandin analogues, independent of the gastric secretion inhibition that these compounds may or may not show. The test is discussed more fully by Robert et al., Gastroenterology 77 (1979) 433, incorporated herein by reference.

[3] = system: pregnant quinea pigs; experiment: abortificative effect in pregnant guinea pigs; type: in vivo; conditions: 25 mg/kg oral, days 43 and 44 of gestation, 6 animals
Method: Another important side effect of natural prostaglandins and prostaglandin analogues is their abortificative effect. Compound 1 was tested for this effect as follows.

[4] = system: small intestine; experiment: enteropooling assay (diarrheogenic effect, Robert); type: in vivo
Source text: (§1) One of the most important side-effects of prostaglandins and prostaglandin analogues is their diarrheogenic effect. An assay was developed by Robert to test the diarrheogenic properties of prostaglandins and prostaglandin analogues. The test quantitatively determines the amount of "enteropooling", i.e. the accumulation of fluid into the small intestine.

[5] = enteropooling assay (diarrheogenic effect, Robert); type: in vivo; conditions: in vivo; for selectivity ratio: enteropooling dose relative to ED50 cytoprotection, defined in drawing 10, read-out: TI (therapeutic index)
Source text: as §1

[6] = system: gastric ulceration; experiment: gastric ulceration in patients, capsules administered twice daily; type: in vivo; conditions: patient ca. 70 kg
[7] = system: gastric ulceration; experiment: gastric ulceration in arthritis patients receiving aspirin, tablets four times daily; type: in vivo; conditions: tablets orally four times daily; patients with arthritis on 1000 mg aspirin daily
[8] = metabolism / intragastric dehydrogenation at C15; cited from earlier work
[9] = rat model; compared to natural prostaglandin PGE2; cited from earlier work
[10] = background art; cited from earlier work
[11] = system: PGDH; conditions: Gandolfi et al.; cited from earlier work
[12] = dose 0.5 mg/kg, negative = lesions worse than control

CCCCCC(=O)C#C[C@H]1CCC(=O)[C@@H]1CCCCCCC(=O)O (relative stereo) [Compound 1, 11-Deoxy-13,14-didehydro-15-oxo PGE1]
EC50 for smooth muscle contraction relative to PGE2 ([1]; compound 1 EC50 higher than that of PGE2): three orders of magnitude higher | EC50 for smooth muscle contraction relative to PGF2α and PGE1 ([1]; compound 1 EC50 higher than that of PGF2α and PGE1): two orders of magnitude higher | EC50 ([1]; rat fundic strip): 5 µM | ED50 [2]: 0.1 mg/kg | abortion induced [3]: in none of the animals did the dose of compound 1 induce abortion | diarrheogenic effect ([4]; compared to PGE2 and PGE2 analogues): very low diarrheogenic effect | therapeutic index ([4]; compared with the other compounds of table 2): significantly higher | TD50 [5]: 25 mg/kg | selectivity ratio [5]: 250

CCCCCC(=O)/C=C/[C@H]1CCC(=O)[C@@H]1CCCCCCC(=O)OC (relative stereo) [PGE1 trans oxo (a) (d)]
Cytoprotection % [2, 12]: -22% | Cytoprotection % ([2]; dose 3 mg/kg): 52%

CCCCCC(=O)C#C[C@H]1CCC(=O)[C@@H]1CCCCCCC(=O)OC (relative stereo) [PGE1 triple oxo (a) (d)]
Cytoprotection % [2, 12]: 39% | Cytoprotection % ([2]; dose 1 mg/kg): 81% | Cytoprotection % ([2]; dose 3 mg/kg): 78% | Cytoprotection % ([2]; dose 5 mg/kg): 96%

CCCCCC(=O)C#C[C@H]1[C@H](O)CC(=O)[C@@H]1CCCCCCC(=O)O [13,14-didehydro-15-oxo PGE1]
reduction of gastric ulceration [6]: substantially reduce gastric ulceration

CCCCCC(=O)C#C[C@@H]1[C@@H](C/C=C\CCCC(=O)O)[C@@H](O)C[C@H]1O [13,14-didehydro-15-oxo-PGF2α]
reduction of incidence of gastric ulceration [7]: effectively reduces the incidence of gastric ulceration

CCCCC[C@@](C)(O)/C=C/[C@H]1[C@H](O)CC(=O)[C@@H]1C/C=C\CCCC(=O)O [15(R)-15-methyl PGE2]
stability [8]: better stability | TD50 [5]: 0.005 mg/kg | selectivity ratio [5]: 25 to 100 | ED50 for cytoprotection [9]: lower value of the ED50

CCCCC[C@](C)(O)/C=C/[C@H]1[C@H](O)CC(=O)[C@@H]1C/C=C\CCCC(=O)O [15(S),15-methyl PGE2]
stability [8]: more stable than PGE2 itself

CCCC[C@@H](C)[C@H](O)C#C[C@H]1[C@H](O)CC(=O)[C@@H]1C/C=C\CCCC(=O)O [16(R),16-methyl-13-dehydro PGE2]
gastric anti-ulcer properties / activity [10]: potent gastric anti-ulcer properties | substrate for the enzyme PGDH [11]: not substrates for the enzyme PGDH

CCCC[C@H](C)[C@H](O)C#C[C@H]1[C@H](O)CC(=O)[C@@H]1C/C=C\CCCC(=O)O [16(S),16-methyl-13-dehydro PGE2]
gastric anti-ulcer properties / activity [10]: potent gastric anti-ulcer properties | substrate for the enzyme PGDH [11]: not substrates for the enzyme PGDH

CCCCC(C)(C)[C@H](O)/C=C/[C@H]1[C@H](O)CC(=O)[C@@H]1C/C=C\CCCC(=O)O [16,16-dimethyl PGE2]
TD50 [5]: 0.0005 mg/kg | selectivity ratio [5]: 10 | ED50 for cytoprotection [9]: lower value of the ED50

CCCCC[C@H](O)/C=C/[C@H]1[C@H](O)CC(=O)[C@@H]1C/C=C\CCCC(=O)O [PGE2]
stability [8]: readily metabolized | ED50 [2]: 0.025 mg/kg | Enteropooling Dose (ED50 for enteropooling) ([4]; in vivo): 0.750 mg/kg | selectivity ratio [5]: 30

CCCCC[C@H](O)/C=C/[C@@H]1[C@@H](C/C=C\CCCC(=O)OC)[C@@H](O)C[C@H]1O [PGF2α trans OH (a)]
Cytoprotection % ([2]; dose 0.001 mg/kg): -19% | Cytoprotection % ([2]; dose 0.01 mg/kg): 1.7% | Cytoprotection % ([2]; dose 0.1 mg/kg): -17% | Cytoprotection % [2, 12]: 82%

CCCCCC(=O)C#C[C@@H]1[C@@H](C/C=C\CCCC(=O)OC)[C@@H](O)C[C@H]1O [PGF2α triple oxo (a), 13,14-didehydro-15-keto PGF2α methyl ester]
cytoprotective potency ([2]; compared with PGF2α itself (tests nos. 7-10)): much more potent cytoprotective agent | Cytoprotection % ([2]; dose 0.001 mg/kg): 6% | Cytoprotection % ([2]; dose 0.01 mg/kg): 23% | Cytoprotection % ([2]; dose 0.1 mg/kg): 50% | Cytoprotection % [2, 12]: 98%
